Test results from patent US20240050428A1 (Cullgen (Shanghai), Inc., priority 2020, published 2024).
Like-named read-outs stand apart in the source and are kept apart here.

Tests used:
MV4;11 cells = test: Cell viability assay (CellTiter-Glo) in MV4;11 cells, alone or with gilteritinib; format: cell-based; conditions: Homo sapiens, MV4-11, 72 h, MV4;11 cells, three days, CellTiter-Glo, read-out: MV4
MOLM-13 cells = test: Cell viability assay (CellTiter-Glo) in MOLM-13 cells, alone or with gilteritinib; format: cell-based; conditions: Homo sapiens, MOLM-13, 72 h, MOLM-13 cells, three days, CellTiter-Glo
[1] = compound alone (without gilteritinib), 11 IC50
[2] = compound with gilteritinib 10 nM, 11 IC50 gilteritinib
[3] = compound alone (without gilteritinib), read-out: MOLM-13 IC50
[4] = compound with gilteritinib 20 nM, read-out: MOLM-13 IC50 gilteritinib
[5] = with gilteritinib 10 nM, 11 IC50 gilteritinib
[6] = with gilteritinib 20 nM, read-out: MOLM-13 IC50 gilteritinib

SMILES	IC50 (MV4;11 cells; [1])	IC50 (MV4;11 cells; [2])	IC50 (MOLM-13 cells; [3])	IC50 (MOLM-13 cells; [4])	IC50 (MV4;11 cells; [5])	IC50 (MOLM-13 cells; [6])
CN1CCN(c2cccc(-c3cn([C@H]4C[C@H](CNc5ccc6c(c5)C(=O)N(C5CCC(=O)NC5=O)C6=O)C4)nc3C3CC3)n2)CC1 (stereo partly drawn) [GS-440, 5-(((trans-3-(3-cyclopropyl-4-(6-(4-methylpiperazin-1-yl)pyridin-2-yl)-1H-pyrazol-1-yl)cyclobutyl)methyl)amino)-2-(2,6-dioxopiperidin-3-yl)isoindoline-1,3-dione]	100 to 1000 nM	100 to 1000 nM	100 to 1000 nM	100 to 1000 nM	–	–
O=C(CN1CCC(N2CCN(c3ccccn3)CC2)C1)NCc1ccc2c(c1)C(=O)N(C1CCC(=O)NC1=O)C2=O (centres unmarked) [GS-332, N-((2-(2,6-Dioxopiperidin-3-yl)-1,3-dioxoisoindolin-5-yl)methyl)-2-(3-(4-(pyridin-2-yl)piperazin-1-yl)pyrrolidin-1-yl)acetamide]	> 1000 nM	–	> 1000 nM	–	> 1000 nM	> 1000 nM
COc1cccc2ncc(-c3cnn(CCCCCCNc4ccc5c(c4)C(=O)N(C4CCC(=O)NC4=O)C5=O)c3)nc12 (centres unmarked) [GS-391, 2-(2,6-Dioxopiperidin-3-yl)-5-((6-(4-(8-methoxyquinoxalin-2-yl)-1H-pyrazol-1-yl)hexyl)amino)isoindoline-1,3-dione]	> 1000 nM	–	> 1000 nM	–	> 1000 nM	100 to 1000 nM
Cc1nc(-c2cn([C@H]3C[C@H](CNc4ccc5c(c4)C(=O)N(C4CCC(=O)NC4=O)C5=O)C3)nc2C(F)F)ccc1F (stereo partly drawn) [GS-635, 5-(((trans-3-(3-(Difluoromethyl)-4-(5-fluoro-6-methylpyridin-2-yl)-1H-pyrazol-1-yl)cyclobutyl)methyl)amino)-2-(2,6-dioxopiperidin-3-yl)isoindoline-1,3-dione]	10 to 100 nM	< 10 nM	10 to 100 nM	< 10 nM	–	–
O=C1CCC(N2C(=O)c3ccc(NC[C@H]4C[C@H](n5cc(C6CCCCC6O)c(C6CC6)n5)C4)cc3C2=O)C(=O)N1 (stereo partly drawn) [GS-634, 5-(((trans-3-(3-Cyclopropyl-4-(2-hydroxycyclohexyl)-1H-pyrazol-1-yl)cyclobutyl)methyl)amino)-2-(2,6-dioxopiperidin-3-yl)isoindoline-1,3-dione]	10 to 100 nM	< 10 nM	100 to 1000 nM	10 to 100 nM	–	–
O=C1CCC(N2Cc3ccc(CCCCCCCn4cc(-c5cnc6ccccc6n5)cn4)cc3C2=O)C(=O)N1 (centres unmarked) [GS-105, 3-(1-Oxo-6-(7-(4-(quinoxalin-2-yl)-1H-pyrazol-1-yl)heptyl)isoindolin-2-yl)piperidine-2,6-dione]	10 to 100 nM	–	10 to 100 nM	–	10 to 100 nM	< 10 nM
O=C(CC1CCCC(N2CCC(n3cc(-c4cnc5ccccc5n4)cn3)CC2)C1)NCc1ccc2c(c1)CN(C1CCC(=O)NC1=O)C2=O (centres unmarked) [GS-086, N-((2-(2,6-dioxopiperidin-3-yl)-1-oxoisoindolin-5-yl)methyl)-2-(3-(4-(4-(quinoxalin-2-yl)-1H-pyrazol-1-yl)piperidin-1-yl)cyclohexyl)acetamide]	> 1000 nM	–	> 1000 nM	–	100 to 1000 nM	> 1000 nM
Cc1nc(-c2cn([C@H]3C[C@H](CCc4ccc5c(c4)C(=O)N(C4CCC(=O)NC4=O)C5=O)C3)nc2C2CC2)ccc1F (stereo partly drawn) [GS-629, 5-(2-(trans-3-(3-Cyclopropyl-4-(5-fluoro-6-methylpyridin-2-yl)-1H-pyrazol-1-yl)cyclobutyl)ethyl)-2-(2,6-dioxopiperidin-3-yl)isoindoline-1,3-dione]	> 1000 nM	100 to 1000 nM	> 1000 nM	100 to 1000 nM	–	–
O=C1CCC(N2C(=O)c3ccc(NCC4CC(C(=O)N5CCC(n6cc(-c7cnc8ccccc8n7)cn6)CC5)C4)cc3C2=O)C(=O)N1 (centres unmarked) [GS-192, 2-(2,6-Dioxopiperidin-3-yl)-5-(((3-(4-(4-(quinoxalin-2-yl)-1H-pyrazol-1-yl)piperidine-1-carbonyl)cyclobutyl)methyl)amino)isoindoline-1,3-dione]	100 to 1000 nM	–	> 1000 nM	–	10 to 100 nM	10 to 100 nM

Next, values leading:

IC50 (MV4;11 cells; [1])	IC50 (MV4;11 cells; [2])	IC50 (MOLM-13 cells; [3])	IC50 (MOLM-13 cells; [4])	IC50 (MV4;11 cells; [5])	IC50 (MOLM-13 cells; [6])	SMILES
< 10 nM	< 10 nM	10 to 100 nM	< 10 nM	–	–	Cc1nn([C@H]2C[C@@H](CCCNc3ccc4c(c3)C(=O)N(C3CCC(=O)NC3=O)C4=O)C2)cc1-c1cnc2cc(N3CCNCC3)ccc2n1 (stereo partly drawn) [GS-434, 2-(2,6-dioxopiperidin-3-yl)-5-((3-(cis-3-(3-methyl-4-(6-(piperazin-1-yl)quinoxalin-2-yl)-1H-pyrazol-1-yl)cyclobutyl)propyl)amino)isoindoline-1,3-dione]
10 to 100 nM	–	10 to 100 nM	–	< 10 nM	< 10 nM	Cc1nn([C@H]2C[C@H](CCCNc3ccc4c(c3)C(=O)N(C3CCC(=O)NC3=O)C4=O)C2)cc1-c1cnc2ccccc2n1 (stereo partly drawn) [GS-171, 2-(2,6-Dioxopiperidin-3-yl)-5-((3-(trans-3-(3-methyl-4-(quinoxalin-2-yl)-1H-pyrazol-1-yl)cyclobutyl)propyl)amino)isoindoline-1,3-dione]
< 10 nM	–	> 1000 nM	–	100 to 1000 nM	100 to 1000 nM	O=C1CCC(N2C(=O)c3ccc(NCCC[C@H]4C[C@H](n5cc(-c6cnccn6)cn5)C4)cc3C2=O)C(=O)N1 (stereo partly drawn) [GS-235, 2-(2,6-Dioxopiperidin-3-yl)-5-((3-(trans-3-(4-(pyrazin-2-yl)-1H-pyrazol-1-yl)cyclobutyl)propyl)amino)isoindoline-1,3-dione]
< 10 nM	–	10 to 100 nM	–	< 10 nM	< 10 nM	O=C1CCC(N2Cc3c(NC4CCCC(Nc5cccc(N6CCC(n7cc(-c8cnc9ccccc9n8)cn7)CC6)c5)C4)cccc3C2=O)C(=O)N1 (centres unmarked) [GS-110, 3-(1-Oxo-4-((3-((3-(4-(4-(quinoxalin-2-yl)-1H-pyrazol-1-yl)piperidin-1-yl)phenyl)amino)cyclohexyl)amino)isoindolin-2-yl)piperidine-2,6-dione]
10 to 100 nM	–	10 to 100 nM	–	< 10 nM	< 10 nM	O=C1CCC(N2C(=O)c3ccc(NC[C@H]4C[C@H](n5cc(-c6cnc7cc(N8CCOCC8)ccc7n6)c(C6CC6)n5)C4)cc3C2=O)C(=O)N1 (stereo partly drawn) [GS-066, 5-(((trans-3-(3-Cyclopropyl-4-(6-morpholinoquinoxalin-2-yl)-1H-pyrazol-1-yl)cyclobutyl)methyl)amino)-2-(2,6-dioxopiperidin-3-yl)isoindoline-1,3-dione]
10 to 100 nM	–	10 to 100 nM	–	< 10 nM	< 10 nM	CN1CCN(c2ccc3nc(-c4cn([C@H]5C[C@H](CNc6ccc7c(c6)C(=O)N(C6CCC(=O)NC6=O)C7=O)C5)nc4C4CC4)cnc3c2)CC1 (stereo partly drawn) [GS-314, 5-(((trans-3-(3-Cyclopropyl-4-(6-(4-methylpiperazin-1-yl)quinoxalin-2-yl)-1H-pyrazol-1-yl)cyclobutyl)methyl)amino)-2-(2,6-dioxopiperidin-3-yl)isoindoline-1,3-dione]
< 10 nM	–	< 10 nM	–	< 10 nM	< 10 nM	O=C1CCC(N2C(=O)c3ccc(NC[C@H]4C[C@H](n5cc(-c6nccc7nccnc67)c(C6CC6)n5)C4)cc3C2=O)C(=O)N1 (stereo partly drawn) [GS-309, 5-(((trans-3-(3-Cyclopropyl-4-(pyrido[3,4-b]pyrazin-5-yl)-1H-pyrazol-1-yl)cyclobutyl)methyl)amino)-2-(2,6-dioxopiperidin-3-yl)isoindoline-1,3-dione]
10 to 100 nM	10 to 100 nM	100 to 1000 nM	10 to 100 nM	–	–	O=C1CCC(N2C(=O)c3ccc(NC[C@H]4C[C@H](n5cc(-c6cccc(C7CC7)n6)c(C6CC6)n5)C4)cc3C2=O)C(=O)N1 (stereo partly drawn) [GS-466, 5-(((trans-3-(3-cyclopropyl-4-(6-cyclopropylpyridin-2-yl)-1H-pyrazol-1-yl)cyclobutyl)methyl)amino)-2-(2,6-dioxopiperidin-3-yl)isoindoline-1,3-dione]
10 to 100 nM	< 10 nM	100 to 1000 nM	10 to 100 nM	–	–	O=C1CCC(N2C(=O)c3ccc(NCCC[C@H]4C[C@H](n5cc(-c6nccc7cccnc67)c(C6CC6)n5)C4)cc3C2=O)C(=O)N1 (stereo partly drawn) [GS-625, 5-((3-(trans-3-(3-Cyclopropyl-4-(1,7-naphthyridin-8-yl)-1H-pyrazol-1-yl)cyclobutyl)propyl)amino)-2-(2,6-dioxopiperidin-3-yl)isoindoline-1,3-dione]
10 to 100 nM	< 10 nM	10 to 100 nM	10 to 100 nM	–	–	CC1CCCCC1c1cn([C@H]2C[C@H](CNc3ccc4c(c3)C(=O)N(C3CCC(=O)NC3=O)C4=O)C2)nc1C1CC1 (stereo partly drawn) [GS-633, 5-(((trans-3-(3-Cyclopropyl-4-(2-methylcyclohexyl)-1H-pyrazol-1-yl)cyclobutyl)methyl)amino)-2-(2,6-dioxopiperidin-3-yl)isoindoline-1,3-dione]
< 10 nM	< 10 nM	10 to 100 nM	< 10 nM	–	–	O=C1CCC(N2C(=O)c3ccc(NCCCCCCn4cc(-c5cnc6ccc(C7CCOCC7)cc6n5)c(C5CC5)n4)cc3C2=O)C(=O)N1 (centres unmarked) [GS-571, 5-((6-(3-Cyclopropyl-4-(7-(tetrahydro-2H-pyran-4-yl)quinoxalin-2-yl)-1H-pyrazol-1-yl)hexyl)amino)-2-(2,6-dioxopiperidin-3-yl)isoindoline-1,3-dione]
